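Exposure lasted 48 hours, with cells grown in 96-well plates and compounds tested at five concentrations. Definition used: TGI = concentration required for complete inhibition of growth.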
What was measured:
Experiment in all cases: NCI tumour cell line growth inhibition, 48 h
OVCAR-3 ovarian = test system: OVCAR-3 ovarian
786-0 renal = test system: 786-0 renal
SN12C renal = test system: SN12C renal
BT-549 breast = test system: BT-549 breast
TK-10 renal = test system: TK-10 renal
T-47D breast = test system: T-47D breast
K-562 leukemia = test system: K-562 leukemia
UACC-257 melanoma = test system: UACC-257 melanoma
NCI-H226 lung = test system: NCI-H226 lung
MDA-MB-435 = test system: MDA-MB-435

| SMILES | TGI (OVCAR-3 ovarian) | TGI (786-0 renal) | TGI (SN12C renal) | TGI (BT-549 breast) | TGI (TK-10 renal) | TGI (T-47D breast) | TGI (K-562 leukemia) | TGI (UACC-257 melanoma) | TGI (NCI-H226 lung) | TGI (MDA-MB-435) |
| --- | --- | --- | --- | --- | --- | --- | --- | --- | --- | --- |
| COC(=O)c1cc(/C=C/C(=O)Cc2ccccc2)cn1S(=O)(=O)c1ccccc1 | > 100 µM | > 100 µM | > 100 µM | > 100 µM | > 100 µM | > 100 µM | > 100 µM | > 100 µM | – | – |
| Nc1c(F)c(F)c2c(c1F)N(CCCCCl)c1ccccc1S2 | > 100 µM | > 100 µM | > 100 µM | > 100 µM | > 100 µM | > 100 µM | > 100 µM | > 100 µM | > 100 µM | – |
| COc1ccccc1/C=C1\CCC(Cc2ccccc2)(CN(C)C)C1=O (stereo unspecified) | 15.3 µM | 23.4 µM | 50.3 µM | 40.5 µM | > 77.7 µM | > 100 µM | > 34.5 µM | > 100 µM | 80.4 µM | – |
| N#Cc1c(-c2ccccc2)cn(C(=O)c2ccccc2)c1N | > 100 µM | > 100 µM | > 100 µM | – | > 100 µM | – | > 100 µM | – | > 100 µM | > 100 µM |
| CCCCC/C=C\C=C\CCCCCCCCC(=O)OC | > 100 µM | > 100 µM | > 100 µM | > 100 µM | > 100 µM | > 100 µM | > 100 µM | > 100 µM | > 100 µM | – |
| c1ccc2cc(C3NCCc4[nH]cnc43)ccc2c1 (stereo unspecified) | > 100 µM | > 100 µM | > 100 µM | – | 82.1 µM | – | > 100 µM | 70.9 µM | > 100 µM | – |
| CCOC(=O)/C(C1=NCCN1C)=C(\O)c1ccccc1 | > 100 µM | > 100 µM | > 100 µM | – | – | – | > 100 µM | > 100 µM | > 100 µM | – |
| Cc1cc(NS(=O)(=O)c2ccc(NO)cc2)no1 | > 100 µM | > 100 µM | 43 µM | > 100 µM | > 100 µM | – | 43.7 µM | > 100 µM | > 100 µM | 41.4 µM |
| CC1(C)N=C(C(N)=O)c2ncn(Cc3ccccc3)c2N1 | > 100 µM | > 100 µM | > 100 µM | – | > 100 µM | > 100 µM | > 100 µM | > 100 µM | > 100 µM | > 100 µM |
| COc1ccc(S(=O)(=O)N/N=C(\C)CN2C(=O)c3ccccc3C2=O)cc1OC | > 100 µM | > 100 µM | > 100 µM | – | > 100 µM | – | > 100 µM | > 100 µM | > 100 µM | – |
| Cc1cc2c(cc1Cl)SC(NNCCO)=NS2(=O)=O | – | > 100 µM | – | > 100 µM | > 100 µM | > 100 µM | > 100 µM | > 100 µM | > 100 µM | > 100 µM |
| COC(C)=NCCC1=CCCCC1 | > 100 µM | > 100 µM | – | > 100 µM | > 100 µM | > 100 µM | > 100 µM | > 100 µM | – | > 100 µM |
